Laboratory results published in patent US20170037028A1 (BAYER PHARMA AKTIENGESELLSCHAFT, priority 2013, published 2017).

molecular target: T1, GLUT1 (Homo sapiens, UniProt P11166); test: Indirect measurement of GLUT1 activity by quantification of intracellular ATP levels (glucose induced ATP increase); assay type: cell-based; set-up: endogenous in cells; host or cells: DLD1 or CHO-K1; conditions: DLD1 cells; 0.1 mM glucose, 1 μM Rotenone, 15 min; CellTiter-Glo ATP readout; IC50 values standardized to cytochalasin B IC50 values; read-out: IC50 regarding glucose induced ATP increase (GLUT1 inhibition)
T1 sequence (P11166 1-492): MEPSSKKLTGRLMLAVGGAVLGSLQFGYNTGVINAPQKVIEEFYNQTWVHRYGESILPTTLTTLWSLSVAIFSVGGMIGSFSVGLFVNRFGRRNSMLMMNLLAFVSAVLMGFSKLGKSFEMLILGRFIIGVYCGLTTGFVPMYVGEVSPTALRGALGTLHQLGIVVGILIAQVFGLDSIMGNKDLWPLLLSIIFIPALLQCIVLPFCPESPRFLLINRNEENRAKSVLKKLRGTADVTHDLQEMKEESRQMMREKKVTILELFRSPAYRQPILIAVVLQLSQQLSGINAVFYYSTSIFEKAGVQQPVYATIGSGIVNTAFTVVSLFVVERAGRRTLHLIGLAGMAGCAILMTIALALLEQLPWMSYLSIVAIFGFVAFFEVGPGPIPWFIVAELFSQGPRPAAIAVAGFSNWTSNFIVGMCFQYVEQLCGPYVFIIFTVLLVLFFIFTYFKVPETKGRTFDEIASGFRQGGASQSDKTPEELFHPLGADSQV
Outline: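 DLD1 or CHO-K1 cells were starved overnight in glucose-free medium with 1% FCS, then combined with an oxidative phosphorylation inhibitor. GLUT1 activity was read as glucose-induced ATP increase, GLUT2 as fructose-induced. Intracellular ATP was quantified by CellTiter-Glo luminescence.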

| Compound | IC50 |
| --- | --- |
| Cc1nn(Cc2ccc(F)cc2)c(C)c1NC(=O)c1cc(C(F)(F)F)nc2ccccc12 [Example 181, N-[1-(4-fluorobenzyl)-3,5-dimethyl-1H-pyrazol-4-yl]-2-(trifluoromethyl)quinoline-4-carboxamide] | 93.8 nM |
| Cc1c(NC(=O)c2cc(C(N)=O)nc3cc(F)ccc23)c(C(F)(F)F)nn1Cc1ccc(C#N)nn1 [Example 427, N^4-{1-[(6-cyanopyridazin-3-yl)methyl]-5-methyl-3-(trifluoromethyl)-1H-pyrazol-4-yl}-7-fluoroquinoline-2,4-dicarboxamide] | 78.3 nM |

same assay, conditions: read-out: IC50 regarding glucose induced ATP increase (GLUT1 inhibition)

| Compound | IC50 |
| --- | --- |
| Cc1nn(Cc2ccccc2C#N)c(C)c1NC(=O)c1cc(C(N)=O)nc2cc(F)c(F)cc12 [Example 235, N^4-[1-(2-cyanobenzyl)-3,5-dimethyl-1H-pyrazol-4-yl]-6,7-difluoroquinoline-2,4-dicarboxamide] | 10.9 nM |
| Cc1nn(Cc2ccc(OC(F)(F)F)cc2)c(C)c1NC(=O)c1cc(C(N)=O)nc2ccccc12 [Example 1460] | 1.9 nM |
| Cc1nn(Cc2ccc(F)cc2)c(C)c1NC(=O)c1cc(C(F)(F)F)nc2cc(F)c(Br)cc12 [Example 124, 6-bromo-7-fluoro-N-[1-(4-fluorobenzyl)-3,5-dimethyl-1H-pyrazol-4-yl]-2-(trifluoromethyl)quinoline-4-carboxamide] | 2.3 nM |
| CCc1c(NC(=O)c2cc(C(N)=O)nc3cc(F)ccc23)c(C(F)(F)F)nn1Cc1ccc(C#N)cc1 [Example 315, N^4-[1-(4-cyanobenzyl)-5-ethyl-3-(trifluoromethyl)-1H-pyrazol-4-yl]-7-fluoroquinoline-2,4-dicarboxamide] | 16 nM |
| Cc1nn(Cc2ccc(C(=O)N(C)CCC#N)cc2)c(C)c1NC(=O)c1cc(C(F)(F)F)nc2ccc(Br)cc12 [Example 1160] | 161 nM |
| Cc1nn(Cc2ccc(F)cc2)c(C)c1NC(=O)c1cc(C(F)(F)F)nc2ccc(Cl)cc12 [Example 14, 6-chloro-N-[1-(4-fluorobenzyl)-3,5-dimethyl-1H-pyrazol-4-yl]-2-(trifluoromethyl)quinoline-4-carboxamide] | 11.5 nM |
| Cc1nn(Cc2ccc(S(C)(=O)=O)cc2)c(C)c1NC(=O)c1cc(C(F)(F)F)nc2ccc(Br)cc12 [Example 217, 6-bromo-N-{3,5-dimethyl-1-[4-(methylsulfonyl)benzyl]-1H-pyrazol-4-yl}-2-(trifluoromethyl)quinoline-4-carboxamide] | 3.2 nM |
| Cc1nc(Cn2nc(C)c(NC(=O)c3cc(C(F)(F)F)nc4ccc(Br)cc34)c2C)cs1 [Example 1354] | 48.9 nM |
| Cc1nn(Cc2cccc(C#N)n2)c(C)c1NC(=O)c1cc(C(N)=O)nc2cc(F)ccc12 [Example 1707] | 124 nM |
| Cc1nn(Cc2ccc(C(=O)NCCCn3ccnc3)cc2)c(C)c1NC(=O)c1cc(C(F)(F)F)nc2ccc(Br)cc12 [Example 1091] | 36 nM |
| COCCNC(=O)c1ccc(Cn2nc(C)c(NC(=O)c3cc(C(N)=O)nc4cc(F)ccc34)c2C)cc1 [Example 1421] | 39 nM |
| Cc1nn(C(C)c2ccc(C#N)cc2)c(C)c1NC(=O)c1cc(C(N)=O)nc2ccccc12 (racemic) [Example 329, (±)-N^4-{1-[1-(4-cyanophenyl)ethyl]-3,5-dimethyl-1H-pyrazol-4-yl}quinoline-2,4-dicarboxamide] | 1.1 nM |
| Cc1nn(Cc2cccc(OC(F)(F)F)c2)c(C)c1NC(=O)c1cc(C(N)=O)nc2cc(F)ccc12 [Example 1586] | 36.9 nM |
| Cc1nn(Cc2ccc(C(=O)NCCCCO)cc2)c(C)c1NC(=O)c1cc(C(F)(F)F)nc2ccc(Br)cc12 [Example 1083] | 29.4 nM |
| COc1cc(C(=O)Nc2c(C(F)(F)F)nn(Cc3ccc(C#N)nc3)c2C)c2ccccc2n1 [Example 1128] | 86.5 nM |
| Cc1nn(Cc2cscn2)c(C)c1NC(=O)c1cc(C(N)=O)nc2ccccc12 [Example 1339] | 72.2 nM |
| Cc1nn(Cc2ccc(C(=O)NC3CC3)cc2)c(C)c1NC(=O)c1cc(C(F)(F)F)nc2ccc(Br)cc12 [Example 1024] | 2.7 nM |
| Cc1cccc(Cn2nc(C)c(NC(=O)c3cc(C(F)(F)F)nc4ccc(Br)cc34)c2C)c1 [Example 52, 6-bromo-N-[3,5-dimethyl-1-(3-methylbenzyl)-1H-pyrazol-4-yl]-2-(trifluoromethyl)quinoline-4-carboxamide] | 52.1 nM |
| Cc1nn(Cc2ccc(OC(F)(F)F)cc2)c(C)c1NC(=O)c1cc(C(N)=O)nc2cccc(F)c12 [Example 1462] | 2.9 nM |
| Cc1c(NC(=O)c2cc(C(N)=O)nc3ccccc23)c(C(F)(F)F)nn1Cc1cccc(S(C)(=O)=O)c1 [Example 1636] | 292 nM |
| CNC(=O)c1c(NC(=O)c2cc(C(F)(F)F)nc3ccc(Br)cc23)c(C)nn1Cc1ccc(F)cc1 [Example 1036] | 5.1 nM |
| COc1cc(C(=O)Nc2c(C)nn(Cc3ccn(C)n3)c2C)c2ccccc2n1 [Example 1526] | 556 nM |

| Compound | IC50 |
| --- | --- |
| Cc1c(NC(=O)c2cc(C(N)=O)nc3ccccc23)c(C(F)(F)F)nn1Cc1ncccc1C#N [Example 1393] | 15 nM |
| Cc1c(NC(=O)c2cc(C(N)=O)nc3ccccc23)c(C(F)(F)F)nn1Cc1ccc(OC(F)(F)F)cc1 [Example 1465] | 5.1 nM |
| Cc1nn(Cc2ccc(C(=O)NCCC(C)(C)O)cc2)c(C)c1NC(=O)c1cc(C(F)(F)F)nc2ccc(Br)cc12 [Example 1204] | 436 nM |
| Cc1c(NC(=O)c2cc(C(N)=O)nc3ccc(Br)cc23)c(C(F)(F)F)nn1Cc1ccc(F)c(F)c1 [Example 1445] | 5.7 nM |
| Cc1cc(C(=O)Nc2c(C)nn(Cc3ccc(F)cc3)c2C)c2ccccc2n1 [Example 105, N-[1-(4-fluorobenzyl)-3,5-dimethyl-1H-pyrazol-4-yl]-2-methylquinoline-4-carboxamide] | 528 nM |
| CCc1nn(Cc2ccc(C#N)cc2)c(CC)c1NC(=O)c1cc(C(F)(F)F)nc2ccc(Br)cc12 [Example 309, 6-bromo-N-[1-(4-cyanobenzyl)-3,5-diethyl-1H-pyrazol-4-yl]-2-(trifluoromethyl)quinoline-4-carboxamide] | 363 nM |
| Cc1nn(Cc2ccc(C(=O)N[C@H]3CC[C@@H](O)CC3)cc2)c(C)c1NC(=O)c1cc(C(F)(F)F)nc2ccc(Br)cc12 [Example 1062] | 16.4 nM |
| Cc1nn(Cc2ccc(C#N)s2)c(C)c1NC(=O)c1cc(C(N)=O)nc2cc(F)ccc12 [Example 422] | 5 nM |
| Cc1c(NC(=O)c2cc(C(N)=O)nc3ccccc23)c(C(F)(F)F)nn1Cc1cc(C#N)no1 [Example 1672] | 151 nM |
| Cc1nn(Cc2ccc(C(=O)Nc3ccccc3C(N)=O)cc2)c(C)c1NC(=O)c1cc(C(F)(F)F)nc2ccc(Br)cc12 [Example 1038] | 5.7 nM |
| Cc1nn(Cc2ccc(C(N)=O)cn2)c(C)c1NC(=O)c1cc(C(F)(F)F)nc2ccc(Br)cc12 [Example 1138] | 102 nM |
| COC(=O)N1CCC(Cn2nc(C)c(NC(=O)c3cc(C(N)=O)nc4ccccc34)c2C)CC1 [Example 1155] | 140 nM |
| COc1cccc(Cn2nc(C)c(NC(=O)c3cc(C)nc4ccc(C)cc34)c2C)c1 [Example 109, N-[1-(3-methoxybenzyl)-3,5-dimethyl-1H-pyrazol-4-yl]-2,6-dimethylquinoline-4-carboxamide] | 688 nM |
| Cc1nn(Cc2ccccc2C#N)c(C)c1NC(=O)c1cc(C(N)=O)nc2cc(F)c(Cl)cc12 [Example 215, 6-chloro-N^4-[1-(2-cyanobenzyl)-3,5-dimethyl-1H-pyrazol-4-yl]-7-fluoroquinoline-2,4-dicarboxamide] | 1.6 nM |
| Cc1nn(Cc2ccc(F)cc2)c(C)c1NC(=O)c1cc(C2CC2)nc2c(F)cccc12 [Example 40, 2-cyclopropyl-8-fluoro-N-[1-(4-fluorobenzyl)-3,5-dimethyl-1H-pyrazol-4-yl]quinoline-4-carboxamide] | 30 nM |
| Cc1c(NC(=O)c2cc(C(N)=O)nc3ccc(F)cc23)c(C(F)(F)F)nn1Cc1ccc(C#N)cc1 [Example 219, N^4-[1-(4-cyanobenzyl)-5-methyl-3-(trifluoromethyl)-1H-pyrazol-4-yl]-6-fluoroquinoline-2,4-dicarboxamide] | 5.4 nM |
| Cc1nn(Cc2ccc(C#N)cc2F)c(C)c1NC(=O)c1cc(C(N)=O)nc2cc(F)c(F)cc12 [Example 298, N^4-[1-(4-cyano-2-fluorobenzyl)-3,5-dimethyl-1H-pyrazol-4-yl]-6,7-difluoroquinoline-2,4-dicarboxamide] | 1 nM |
| Cc1c(NC(=O)c2cc(C(N)=O)nc3ccc(Br)cc23)c(C(F)(F)F)nn1Cc1ccc(OC(F)(F)F)cc1 [Example 1498] | 8 nM |
| Cc1c(NC(=O)c2cc(C(N)=O)nc3cc(F)ccc23)c(C(F)(F)F)nn1Cc1cccc(C#N)n1 [Example 1687] | 128 nM |
| Cc1cccc(Cn2nc(C)c(NC(=O)c3cc(C(N)=O)nc4ccc(Br)cc34)c2C)c1 [Example 1477] | 4.3 nM |
| Cc1c(NC(=O)c2cc(C(N)=O)nc3cc(F)ccc23)c(C(F)(F)F)nn1Cc1cc(C(C)C)no1 [Example 1553] | 159 nM |
